ChEMBL document CHEMBL1201862, “PubChem BioAssay data set” (2004)
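Method: 48-hour compound exposure of cells in 96-well plates, five concentrations, linear interpolation of endpoints. At the GI50, growth is halved.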 Calls of active or inactive are those of the source. No stated cut-off is given here; in the data, active = GI50 up to about 1.1 µM and inactive = higher.

What was measured:
Test in all cases: NCI anticancer screen, dose series, 48 h
[1] = test system: SK-MEL-28
[2] = test system: MDA-MB-435
[3] = test system: HOP-92
[4] = test system: PC-3
[5] = test system: SW-620
[6] = test system: NCI-H226
[7] = test system: T47D
[8] = test system: SF-295
[9] = test system: OVCAR-8
[10] = test system: K562
[11] = test system: HT-29
[12] = test system: SNB-19
[13] = test system: IGROV-1
[14] = test system: COLO 205
[15] = test system: SK-MEL-5
[16] = test system: SR
[17] = test system: MOLT-4
[18] = test system: TK-10
[19] = test system: OVCAR-5
[20] = test system: HL-60

Measured: GI50

COP(C)(=O)/C(Cc1ccccc1)=N\O (stereo not given)
inactive: [1] > 100 µM | [2] > 100 µM | [3] > 100 µM | [4] > 100 µM | [5] > 100 µM | [6] > 100 µM | [7] > 100 µM | [8] > 100 µM | [9] > 100 µM | [10] > 100 µM | [11] > 100 µM | [12] > 100 µM | [13] > 100 µM | [14] > 100 µM | [15] > 100 µM | [16] > 100 µM | [17] > 100 µM | [18] > 100 µM | [19] > 100 µM | [20] > 100 µM
